Assays:
Assay in all cases: relative viability (nuclei count vs DMSO), 5 days (fraction); higher = more cells survive
GSK-J4 + Foretinib = compound: CCOC(=O)CCNc1cc(N2CCc3ccccc3CC2)nc(-c2ccccn2)n1 [GSK-J4] + COc1cc2c(Oc3ccc(NC(=O)C4(C(=O)Nc5ccc(F)cc5)CC4)cc3F)ccnc2cc1OCCCN1CCOCC1 [Foretinib] (partner 0.25 µM)
How it was run: (§1)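 A single step with final 0.05% Triton X-100, 1% formaldehyde and 1 ug/ml Hoechst fixed the cells and stained nuclei 5 days after treatment. Lung cancer cell lines in 1536-well plates had been treated by pin tool the day after seeding with one drug alone or a fixed anchor-drug dose plus five library-drug doses (not always all listed) in √10 steps, and nuclei were counted on 4× images. Relative viability is the ratio of nuclei in treated wells to nuclei in vehicle wells, taken as the median of duplicate plates.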

AZ3146 + Lapatinib = compound: CN1CCC(CC1)OC2=CC(=C(C=C2)NC3=NC=C4C(=N3)N(C(=O)N4C)C5CCCC5)OC [AZ3146] + CS(=O)(=O)CCNCc1ccc(-c2ccc3ncnc(Nc4ccc(OCc5cccc(F)c5)c(Cl)c4)c3c2)o1 [Lapatinib] (partner 2 µM)
How it was run: as §1

AZ3146 + Pemetrexed = compound: CN1CCC(CC1)OC2=CC(=C(C=C2)NC3=NC=C4C(=N3)N(C(=O)N4C)C5CCCC5)OC [AZ3146] + Nc1nc2[nH]cc(CCc3ccc(C(=O)N[C@@H](CCC(=O)O)C(=O)O)cc3)c2c(=O)[nH]1 [Pemetrexed] (partner 0.2 µM)
How it was run: as §1

AZ3146 + OSI-027 = compound: CN1CCC(CC1)OC2=CC(=C(C=C2)NC3=NC=C4C(=N3)N(C(=O)N4C)C5CCCC5)OC [AZ3146] + COc1cccc2cc(-c3nc([C@H]4CC[C@H](C(=O)O)CC4)n4ncnc(N)c34)[nH]c12 [OSI-027] (partner 0.5 µM)
How it was run: as §1

Row | Cell Line | relative viability (GSK-J4 + Foretinib; first compound 0.5 µM) | relative viability (GSK-J4 + Foretinib; first compound 1.581 µM) | relative viability (GSK-J4 + Foretinib; first compound 15.81 µM) | relative viability (GSK-J4 + Foretinib; first compound 50 µM) | relative viability (AZ3146 + Lapatinib; first compound 0.08 µM) | relative viability (AZ3146 + Lapatinib; first compound 0.253 µM) | relative viability (AZ3146 + Lapatinib; first compound 0.8 µM) | relative viability (AZ3146 + Lapatinib; first compound 2.53 µM) | relative viability (AZ3146 + Lapatinib; first compound 8 µM) | relative viability (AZ3146 + Pemetrexed; first compound 0.253 µM) | relative viability (AZ3146 + Pemetrexed; first compound 0.8 µM) | relative viability (AZ3146 + Pemetrexed; first compound 2.53 µM) | relative viability (AZ3146 + Pemetrexed; first compound 8 µM) | relative viability (AZ3146 + OSI-027; first compound 0.08 µM) | relative viability (AZ3146 + OSI-027; first compound 0.253 µM) | relative viability (AZ3146 + OSI-027; first compound 0.8 µM) | relative viability (AZ3146 + OSI-027; first compound 2.53 µM) | relative viability (AZ3146 + OSI-027; first compound 8 µM) | relative viability (GSK-J4 + Foretinib; first compound 5 µM) | relative viability (AZ3146 + Pemetrexed; first compound 0.08 µM)
1 | LU99A | 0.731 | 0.78 | 0.809 | 0.523 | 0.864 | 1.15 | 1.06 | 0.954 | 0.995 | 0.188 | 0.181 | 0.165 | 0.186 | 0.28 | 0.306 | 0.309 | 0.317 | 0.228 |  | 
2 | LXF-289 | 0.974 | 0.93 | 0.929 | 0.924 | 0.846 | 0.924 | 0.889 | 0.907 | 0.908 | 0.85 | 0.912 | 0.924 | 0.799 | 0.775 | 0.704 | 0.77 | 0.781 | 0.77 | 1.01 | 0.953
3 | NCI-H23 | 0.999 | 0.885 | 0.802 | 0.847 | 1.11 | 1.22 | 1.14 | 1.31 | 0.915 | 0.645 | 0.857 | 0.787 | 0.45 | 0.621 | 0.699 | 0.403 | 0.746 | 0.616 | 0.942 | 0.789
4 | NCI-H322M | 1.01 | 0.884 | 0.815 | 0.712 | 0.72 | 0.593 | 0.609 | 0.608 | 0.584 | 0.585 | 0.609 | 0.574 | 0.642 | 0.51 | 0.581 | 0.509 | 0.601 | 0.48 | 1.27 | 0.59
5 | NCI-H358 | 0.677 | 0.684 | 0.616 | 0.631 | 0.595 | 0.471 | 0.377 | 0.384 | 0.435 | 0.168 | 0.192 | 0.171 | 0.156 | 0.762 | 0.753 | 0.661 | 0.82 | 0.431 | 0.639 | 0.153
6 | NCI-H460 | 0.977 | 0.81 | 1 | 0.871 | 0.877 | 1.11 | 0.937 | 0.817 | 0.656 | 0.0628 | 0.0797 | 0.06 | 0.0682 | 0.636 | 0.72 | 0.622 | 0.622 | 0.423 | 0.732 | 0.0552
7 | NCI-H520 | 0.691 | 0.689 | 0.613 | 0.626 | 0.797 | 0.84 | 0.838 | 0.965 | 0.576 | 0.735 | 0.647 | 0.543 | 0.422 | 0.234 | 0.255 | 0.234 | 0.292 | 0.233 | 0.811 | 0.843
8 | NCI-H596 | 0.928 | 0.657 | 0.673 | 0.823 | 1.05 | 0.94 | 1.21 | 1.08 | 0.979 | 0.449 | 0.574 | 0.486 | 0.556 | 0.683 | 0.698 | 0.669 | 0.762 | 0.563 | 0.892 | 0.478
9 | NCI-H647 | 1.1 | 0.855 | 1.2 | 1.09 | 1.05 | 1.12 | 1.12 | 1.25 | 0.792 | 0.178 | 0.188 | 0.204 | 0.115 | 0.55 | 0.656 | 0.567 | 0.684 | 0.697 | 1.07 | 0.22
10 | NCI-H650 | 0.972 | 1.01 | 0.941 | 0.712 | 0.804 | 0.844 | 0.667 | 1.02 | 0.973 | 0.747 | 0.78 | 0.949 | 0.948 | 0.504 | 0.461 | 0.359 | 0.588 | 0.506 | 0.686 | 0.871
11 | NCI-H661 | 0.983 | 0.995 | 0.969 | 0.805 | 0.661 | 0.514 | 0.559 | 0.537 | 0.472 | 0.894 | 0.956 | 0.92 | 0.818 | 0.74 | 0.72 | 0.768 | 0.764 | 0.576 | 0.86 | 0.939
12 | NCI-H838 | 1.03 | 1.02 | 0.853 | 0.738 | 1.07 | 0.939 | 0.935 | 0.858 | 0.32 | 0.239 | 0.283 | 0.269 | 0.211 | 0.38 | 0.432 | 0.341 | 0.325 | 0.373 |  | 0.233
13 | NCI-H1355 | 0.878 | 0.837 | 0.839 | 0.859 | 0.854 | 0.951 | 0.986 | 1.03 | 0.953 | 1.02 | 1.03 | 1.12 | 1.13 | 0.396 | 0.395 | 0.324 | 0.441 | 0.345 | 1.08 | 1.02
14 | NCI-H1395 | 0.937 | 0.983 | 0.973 | 0.946 | 0.853 | 0.915 | 0.997 | 1.19 | 0.999 | 0.746 |  | 0.91 | 0.661 | 0.569 | 0.533 | 0.564 | 0.701 | 0.633 | 0.865 | 0.783
15 | NCI-H1437 | 1.29 | 0.715 | 1.24 | 0.766 | 0.708 | 0.739 | 0.829 | 0.899 | 0.519 | 0.327 | 0.3 | 0.346 | 0.294 | 0.813 | 0.876 | 0.821 | 0.875 | 0.995 | 1.23 | 0.283
16 | NCI-H1563 | 0.943 | 0.898 | 0.801 | 0.973 | 0.695 | 0.881 | 0.951 | 0.927 | 0.873 | 0.645 | 0.717 | 0.797 | 0.825 | 0.684 | 0.731 | 0.765 | 0.746 | 0.696 | 0.747 | 0.673
